≈ marks a conversion by molar mass, not a printed value. Where “and” joins values, the source holds several entries; their conditions need not be identical. Equal entries are not always repeated. Where two headings read alike, the source gives them in different places. Bridge positions count the residues as written; N and C are the ends. Square brackets hold non-standard residues; d marks the D form. Ends that are not written are not given here. Peptide text beside a SMILES is read from it. * marks the point of attachment. X1 = CC[C@H](C)CCCCC(=O)*; Dab = NCC[C@H](N)C(=O)O
How the values were obtained:
S. aureus = experiment: Periprosthetic joint infection mouse model, implant biofilm CFU burden; assay type: in vivo; details: intraperitoneal delivery, versus untreated control mice
Description: Periprosthetic joint infection was modeled in a mouse by placing an intra-articular K-wire through the medullary canal of the proximal femur followed by intra-articular inoculation with S. aureus. Animals were treated systemically with an intraperitoneal delivery of cefazolin, rifampin, or the exemplary peptide of SEQ ID NO:1. Intraperitoneal delivery was chosen due to technical difficulties associated with intravenous delivery. Implant sonication and proximal femur homogenate were used to quantify viable bacteria.

[1] = test system: S. aureus strain SH1000 biofilms; experiment: In vitro biofilm disruption on stainless steel rods; assay type: cell-based; details: S. aureus SH1000, 10×MIC, up to 24 hours
Source text: FIG. 15 depicts the effect of administration of SEQ ID NO:1 and cefazolin on biofilm maintenance. […] SEQ ID NO:1 eliminated mature implant biofilms on a model strain of S. aureus, SH1000.

[2] = test system: P. aeruginosa strains (PAO1 and 2 clinical isolates); assay type: cell-based; details: three P. aeruginosa strains, 0.5×MIC exposure
Source text: Each antibiotic was compared for their propensity to select for bacterial resistance phenotypes in vitro.

[3] = test system: Acinetobacter baumannii ATCC BAA-1797 (MDR); experiment: microbe, parasite or virus in culture; assay type: cell-based; details: Acinetobacter baumannii ATCC BAA-1797 (MDR)
Description: (§1) Each peptide was formulated in PBS buffer prior to testing. Peptides of SEQ ID NO:5 and SEQ ID NO:8 were brought up in 100% DMSO with 0.002% polysorbate-80 at 1.28 mg/mL (40× the highest final test concentration of 32 mcg/mL). Final test concentration of DMSO was 2.5% in the assay at the first dilution for those two compounds.
(§2) Mueller Hinton II broth (MHB II; BD; Lot Nos. 6258541 and 7143896) was used for MIC testing of aerobic organisms. 0.002% polysorbate 80 (P80) was added to the test medium.
(§3) MIC values were determined using a broth microdilution procedure described by CLSI (1, 3). Automated liquid handlers (Multidrop 384, Labsystems, Helsinki, Finland; Biomek 2000 and Biomek FX, Beckman Coulter, Fullerton Calif.) were used to conduct serial dilutions and liquid transfers.
(§4) To prepare the drug mother plates, which would provide the serial peptide dilutions for the replicate daughter plates, the wells of columns 2-12 of standard 96-well microdilution plates (Costar 3795) were filled with 150 µl of the designated diluent for each row of peptide.
(§5) The test articles and comparator compounds ([…] at 40× the highest concentration to be tested) were dispensed into the appropriate wells in column 1. The Biomek 2000 was then used to make 2-fold serial dilutions in the mother plates from column 1 through column 11. The wells of Column 12 contained no drug and served as the organism growth control wells for the assay.
(§6) The daughter plates were loaded with 185 μL per well of MHB II using the Multidrop 384. The daughter plates were completed on the Biomek FX instrument which transferred 5 uL of peptide solution from each well of a mother plate to the corresponding well of each daughter plate in a single step. A standardized inoculum of each test organism was prepared per CLSI methods. The inoculum for each organism was dispensed into sterile reservoirs divided by length (Beckman Coulter), and the Biomek 2000 was used to inoculate the plates. Daughter plates were placed on the Biomek 2000 work surface in reverse orientation so that inoculation took place from low to high drug concentration.
(§7) Plates were stacked 3-4 high, covered with a lid on the top plate, placed in plastic bags, and incubated at 35° C. for 16 to 20 hrs. Following incubation, the microplates were removed from the incubator and viewed from the bottom using a plate viewer. […] The MIC was read and recorded as the lowest concentration of peptide that inhibited visible growth of the organism.

[4] = test system: Escherichia coli (n = 101); assay type: cell-based; details: Escherichia coli (n = 101); for % R (isolates resistant): CLSI breakpoints, colistin EUCAST
Description: (§8) The clinical isolates were obtained from USA hospitals. […] Plates were incubated at 35° C. overnight.

[5] = test system: Acinetobacter spp. (n = 104); assay type: cell-based; details: Acinetobacter spp. (n = 104); for % R (isolates resistant): CLSI breakpoints
Description: as §8

[6] = test system: Klebsiella pneumoniae (n = 101); assay type: cell-based; details: Klebsiella pneumoniae (n = 101); for % R (isolates resistant): CLSI breakpoints, colistin EUCAST
Description: as §8

[7] = test system: Pseudomonas aeruginosa (n = 109); assay type: cell-based; details: Pseudomonas aeruginosa (n = 109); for % R (isolates resistant): CLSI breakpoints
Description: as §8

[8] = test system: Pseudomonas aeruginosa ATCC 27853 (non-MDR; QC); details: cited from earlier work
[9] = test system: Escherichia coli ATCC 25922 (QC); details: cited from earlier work
[10] = test system: Enterobacter spp. (n = 102); assay type: cell-based, Enterobacter aerogenes and E. cloacae; details: Enterobacter spp. (n = 102); for % R (isolates resistant): CLSI breakpoints, colistin EUCAST
Description: as §8

[11] = test system: Streptococcus pyogenes ATCC 49399; assay type: cell-based; details: Streptococcus pyogenes ATCC 49399
Description: as §1, §2, §3, §4, §5, §6, §7

[12] = test system: Enterococcus faecalis ATCC 700802 (V583 VRE); assay type: cell-based; details: Enterococcus faecalis ATCC 700802 (V583 VRE)
Description: as §1, §2, §3, §4, §5, §6, §7

[13] = test system: Pseudomonas aeruginosa ATCC 27853 (non-MDR; QC); assay type: cell-based; details: Pseudomonas aeruginosa ATCC 27853 (non-MDR; QC)
Description: as §1, §2, §3, §4, §5, §6, §7

[14] = test system: Pseudomonas aeruginosa ATCC BAA-2109 (MDR); assay type: cell-based; details: Pseudomonas aeruginosa ATCC BAA-2109 (MDR)
Description: as §1, §2, §3, §4, §5, §6, §7

[15] = test system: Staphylococcus aureus ATCC 29213 (MSSA; QC); assay type: cell-based; details: Staphylococcus aureus ATCC 29213 (MSSA; QC)
Description: as §1, §2, §3, §4, §5, §6, §7

[16] = test system: Staphylococcus aureus NRS382 (USA100; HA-MRSA); assay type: cell-based; details: Staphylococcus aureus NRS382 (USA100; HA-MRSA)
Description: as §1, §2, §3, §4, §5, §6, §7

[17] = test system: Acinetobacter baumannii ATCC 19606 (non-MDR); assay type: cell-based; details: Acinetobacter baumannii ATCC 19606 (non-MDR)
Description: as §1, §2, §3, §4, §5, §6, §7

[18] = test system: Enterococcus faecalis ATCC 29212 (VSE; QC); assay type: cell-based; details: Enterococcus faecalis ATCC 29212 (VSE; QC)
Description: as §1, §2, §3, §4, §5, §6, §7

[19] = test system: Staphylococcus aureus ATCC 43300 (MRSA); assay type: cell-based; details: Staphylococcus aureus ATCC 43300 (MRSA)
Description: as §1, §2, §3, §4, §5, §6, §7

[20] = test system: Streptococcus pneumoniae ATCC 49619 (QC); assay type: cell-based; details: Streptococcus pneumoniae ATCC 49619 (QC)
Description: as §1, §2, §3, §4, §5, §6, §7

[21] = test system: Streptococcus agalactiae ATCC 13813; assay type: cell-based
Description: as §1, §2, §3, §4, §5, §6, §7

[22] = test system: Enterococcus faecium ATCC 51559 (VRE); assay type: cell-based; details: Enterococcus faecium ATCC 51559 (VRE)
Description: as §1, §2, §3, §4, §5, §6, §7

[23] = test system: Escherichia coli ATCC BAA-2471 (NDM-1); assay type: cell-based; details: Escherichia coli ATCC BAA-2471 (NDM-1)
Description: as §1, §2, §3, §4, §5, §6, §7

[24] = test system: Escherichia coli ATCC 25922 (QC); assay type: cell-based; details: Escherichia coli ATCC 25922 (QC)
Description: as §1, §2, §3, §4, §5, §6, §7

[25] = test system: Escherichia coli ATCC 35218 (ESBL); assay type: cell-based; details: Escherichia coli ATCC 35218 (ESBL)
Description: as §1, §2, §3, §4, §5, §6, §7

[26] = test system: Klebsiella pneumoniae ATCC BAA-1705 (KPC); assay type: cell-based; details: Klebsiella pneumoniae ATCC BAA-1705 (KPC)
Description: as §1, §2, §3, §4, §5, §6, §7

[27] = test system: Enterococcus faecalis ATCC 29212 (VSE; QC); details: cited from earlier work
[28] = test system: Staphylococcus aureus ATCC 29213 (MSSA; QC); details: cited from earlier work
[29] = test system: Streptococcus pneumoniae ATCC 49619 (QC); details: cited from earlier work
[30] = macaques, 1.0 mg/kg, 30 min IV infusion, one line per individual monkey (4000, 4001, 4002)
Description: Animals will be obtained from the Test Facility's colony of adult male cynomolgous monkeys (Macaca fascicularis) of Chinese origin. Animals will be weighed prior to dosing.
Intravenous administration will be via 30 minute infusion into a temporary percutaneous catheter placed into a saphenous vein. Prior to and following dose administration, the catheter will be flushed with 0.5 mL saline prior to removal. All dosing syringes will be weighed prior to and following dosing.
Serial blood samples will be collected via femoral vein (cephalic or saphenous, as necessary). Approximately 1 mL blood samples will be collected into K2EDTA tubes.
Blood samples will be collected into K2EDTA tubes and stored on wet ice. Whole blood will be processed to plasma by centrifugation (2400-2700 rpm at 5° C.) within 30 minutes of collection. Plasma samples will be split into 2 equal aliquots and stored at −80° C. until analysis.
The peptide will be purified from plasma samples from each macaque using a cation exchange-based solid-phase extraction process. Prior to extraction, a known concentration of a mass-adjusted internal standard (IS) will be added to assess recovery and allow for quantitation. Purified samples will be further subjected to high-performance liquid chromatography (HPLC) using C18 300 or 130 angstrom columns prior to MS/MS analysis. Multiple charge states will be observed by MS, so MS/MS will be employed to enable multiple reaction monitoring (MRM) analyses to determine the most MRM transitions with the highest signal-to-noise gain. Compound plasma concentrations will be determined by comparing to and compensating with co-purified IS peak intensity and validated calibrated standard curves.
Toxicokinetic parameters will be calculated using non-compartmental methods as implemented in the Phoenix® WinNonlin® ver. 6.3 comprehensive TK/PK analysis software program (Pharsight Corporation; Mountain View, Calif.) using an IV infusion model. […] Values below the lower limit of quantitation (BLQ) will be assigned a value of zero for the toxicokinetic calculations. […]

## Cc1nnc(SCC2=C(C(=O)O)N3C(=O)[C@@H](NC(=O)Cn4cnnn4)[C@H]3SC2)s1 [Cefazolin, cefazolin]
S. aureus
  Reduction of implant biofilm CFU burden (sonicate culture): one log reduction in viable bacteria as compared to untreated controls, but this reduction was not statistically significant
[1]
  Reduction of mature biofilm on stainless steel rods: did not achieve a three-log reduction

## CC[C@H](C)CCCCC(=O)N[C@@H](CCN)C(=O)N[C@H](C(=O)N[C@@H](CCN)C(=O)N[C@H]1CCNC(=O)[C@H]([C@@H](C)O)NC(=O)[C@H](CCN)NC(=O)[C@H](CCN)NC(=O)[C@H](CC(C)C)NC(=O)[C@@H](CC(C)C)NC(=O)[C@H](CCN)NC1=O)[C@@H](C)O [Colistin, reference compound] (X1-[Dab]T[Dab][Dab][Dab][dL]L[Dab][Dab]T; lactam 4-C)
[2]
  Time to development of resistance (fold MIC>10): 13 days
[3]
  MIC: 0.5 µg/mL (≈ 0.428 µM)
[4]
  MIC50: 0.12 µg/mL (≈ 0.103 µM)
  MIC90: 0.12 µg/mL (≈ 0.103 µM)
  MIC range: ≤0.03 to 0.5 µg/mL
  Mode (MIC): 0.12 µg/mL
  % R (isolates resistant): 0%
[5]
  MIC50: 0.25 µg/mL (≈ 0.214 µM)
  MIC90: >32 µg/mL
  Mode (MIC): 0.25 µg/mL
  % R (isolates resistant): 20.2%
[6]
  MIC50: 0.12 µg/mL (≈ 0.103 µM)
  MIC90: 32 µg/mL (≈ 27.4 µM)
  Mode (MIC): 0.12 µg/mL
  % R (isolates resistant): 27.7%
[7]
  MIC50: 0.5 µg/mL (≈ 0.428 µM)
  MIC90: 1 µg/mL (≈ 0.855 µM)
  Mode (MIC): 0.5 µg/mL
  % R (isolates resistant): 7.3%
[8]
  MIC range in parentheses below the MIC (QC range): (0.5-4) μg/mL
[9]
  MIC range in parentheses below the MIC (QC range): (0.25-2) μg/mL
[10]
  MIC50: 0.12 µg/mL (≈ 0.103 µM)
  MIC90: 0.25 µg/mL (≈ 0.214 µM)
  Mode (MIC): 0.12 µg/mL
  % R (isolates resistant): 5.8%
[11]
  MIC: >32 µg/mL
[12]
  MIC: >32 µg/mL
[13]
  MIC: 0.25 µg/mL (≈ 0.214 µM)
[14]
  MIC: 0.12 µg/mL (≈ 0.103 µM)
[15]
  MIC: >32 µg/mL
[16]
  MIC: >32 µg/mL
[17]
  MIC: 0.25 µg/mL (≈ 0.214 µM)
[18]
  MIC: >32 µg/mL
[19]
  MIC: >32 µg/mL
[20]
  MIC: >32 µg/mL
[21]
  MIC: >32 µg/mL
[22]
  MIC: >32 µg/mL
[23]
  MIC: 0.06 µg/mL (≈ 0.0513 µM)
[24]
  MIC: 0.12 µg/mL (≈ 0.103 µM)
[25]
  MIC: 0.12 µg/mL (≈ 0.103 µM)
[26]
  MIC: 0.12 µg/mL (≈ 0.103 µM)

## C[C@@H](O)[C@H]1C(=O)N2C(C(=O)O)=C(S[C@@H]3CN[C@H](C(=O)N(C)C)C3)[C@H](C)[C@H]12 [Meropenem]
[3]; ATCCBAA1797, read-out: MIC
  MIC: > 4 µg/mL
[4]
  % R (isolates resistant): 1%
[5]
  % R (isolates resistant): 65.4%
[6]
  % R (isolates resistant): 50.5%
[7]
  % R (isolates resistant): 20.2%
[7]; listed as meropenem
  % R (isolates resistant): 20%
[27]
  MIC range in parentheses below the MIC (QC range): (2-8) μg/mL
[28]
  MIC range in parentheses below the MIC (QC range): (0.03-0.12) μg/mL
[8]
  MIC range in parentheses below the MIC (QC range): (0.12-1) μg/mL
[9]
  MIC range in parentheses below the MIC (QC range): (0.008-0.06) μg/mL
[10]
  % R (isolates resistant): 3.9%
[29]
  MIC range in parentheses below the MIC (QC range): (0.03-0.25) μg/mL

## KKTHTKTKKTHTKTKKTHTK [SEQ ID NO: 13]
[30]
  Dose Normalized Cmax: 5000 and 7000 and 6000
